Experimental data: PMC8161486 (ACS Central Science, 2021)
“Also recorded” adds a separate entry of the source. Where two headings read alike, the source gives them in different places.

How the values were obtained:
MV4;11 cells [1] = assay: Quant-seq 3′ mRNA sequencing in MV4; assay type: cell-based, human; settings: MV4;11, 4 h
MV4;11 cells [2] = assay: 72 h viability assay; assay type: cell-based, human; settings: MV4;11, 72 h
YEATS4 YEATS domain = YEATS4 YEATS domain (Homo sapiens, UniProt O95619); assay: SPR, biotinylated YEATS4 YEATS; assay type: binding
BRD4 BD1 = BRD4 BD1 (Homo sapiens, UniProt O60885); assay: BRD4 BD1 HTRF counter-screen; assay type: binding
YEATS2 YEATS domain = YEATS2 YEATS domain (Homo sapiens, UniProt Q9ULM3); assay: Modified histone peptide array, YEATS2 YEATS; settings: 10 and 50 μM
32 bromodomains = assay: BROMOscan profiling; settings: 10 μM
MV4;11 cells [3] = assay: Cell cycle analysis; assay type: cell-based, human; settings: MV4;11, 72 h
MOLM-13 = assay: Cell proliferation assay; assay type: cell-based; settings: MOLM-13 (MLL-AF9 AML), ∼2 weeks
AF9(YEATS)-HiBiT = AF9(YEATS)-HiBiT (Homo sapiens, UniProt P42568); assay: AF9; assay type: cell-based
786-O = assay: Cell proliferation assay; assay type: cell-based; settings: 786-O (renal cell carcinoma), 10 μM
OCI/AML-2 = assay: Cell proliferation assay; assay type: cell-based; settings: OCI/AML-2 (MLL-AF6 AML), ∼2 weeks
MV4;11 cells [4] = assay: qRT-PCR transcript abundance in MV4; assay type: cell-based, human
HL-60 = assay: Cell proliferation assay; assay type: cell-based; settings: HL-60 (MLL wild-type AML), ENL-insensitive
AF9 YEATS domain = AF9 YEATS domain (Homo sapiens, UniProt P42568); assay: AF9 YEATS HTRF; assay type: binding
[5] = target: YSK4 (also known as MAP3K19) (Homo sapiens, UniProt Q56UN5); assay: KdELECT affinity determination of scanMAX hits; assay type: binding
468 kinases = assay: KINOMEscan profiling; settings: 10 μM, 468 kinases tested
JURKAT = assay: Cell proliferation assay; assay type: cell-based; settings: JURKAT (T-cell ALL), ENL-insensitive
ENL [6] = target: T1, ENL (Homo sapiens, UniProt Q03111); assay: ENL ChIP-qPCR / ChIP-seq in MV4
T1 sequence (Q03111 1-559): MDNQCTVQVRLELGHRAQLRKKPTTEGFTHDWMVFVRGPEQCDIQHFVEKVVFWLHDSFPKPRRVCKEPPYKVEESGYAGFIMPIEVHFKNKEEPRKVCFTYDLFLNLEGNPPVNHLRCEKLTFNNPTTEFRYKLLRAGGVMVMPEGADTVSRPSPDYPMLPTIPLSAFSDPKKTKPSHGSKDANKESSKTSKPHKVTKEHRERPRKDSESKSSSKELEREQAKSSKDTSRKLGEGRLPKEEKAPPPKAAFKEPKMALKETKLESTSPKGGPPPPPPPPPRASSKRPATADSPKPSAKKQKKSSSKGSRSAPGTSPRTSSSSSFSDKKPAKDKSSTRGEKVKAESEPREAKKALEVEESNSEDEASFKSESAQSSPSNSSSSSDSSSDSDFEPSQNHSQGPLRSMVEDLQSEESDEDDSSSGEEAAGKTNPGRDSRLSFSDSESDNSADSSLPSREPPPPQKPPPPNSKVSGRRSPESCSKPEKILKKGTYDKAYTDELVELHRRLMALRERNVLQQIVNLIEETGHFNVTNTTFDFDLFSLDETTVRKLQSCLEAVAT

HB11;19 = assay: Cell proliferation assay; assay type: cell-based; settings: HB11;19 (MLL-ENL fusion), ∼2 weeks
MV4;11 = assay: Cell proliferation assay; assay type: cell-based, human; settings: MV4;11 (MLL-AF4 AML), ∼2 weeks
MOLT-4 = assay: Cell proliferation assay; assay type: cell-based; settings: MOLT-4 (T-cell ALL), up to 10 μM
ENL YEATS domain [7] = target: T2, ENL YEATS domain (Homo sapiens, UniProt Q03111); settings: 1 μM
T2 sequence (Q03111 1-148): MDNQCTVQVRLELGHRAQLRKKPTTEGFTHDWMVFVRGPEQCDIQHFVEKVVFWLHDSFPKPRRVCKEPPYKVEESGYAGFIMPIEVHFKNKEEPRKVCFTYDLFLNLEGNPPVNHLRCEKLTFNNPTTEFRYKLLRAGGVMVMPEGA

MV4;11 cells [8] = assay: TMT-based whole proteome analysis of MV4; assay type: cell-based, human; settings: 10 μM
AF9 (V5) = AF9 (V5) (Homo sapiens, UniProt P42568); assay: AF9-V5 degradation by immunoblot in MOLM-13 cells; assay type: cell-based; settings: 4 h treatment
ENL [9] = target: T1, ENL; assay: ENL degradation by immunoblot; assay type: cell-based; settings: for DC50: read-out: ENL DC50, 4 h treatment
ENL YEATS domain [10] = target: T2, ENL YEATS domain; assay: ENL-H3K27cr HTRF
ENL(YEATS)-HiBiT = ENL(YEATS)-HiBiT (Homo sapiens, UniProt Q03111); assay: ENL; assay type: cell-based
[11] = ENL-H3K27cr HTRF IC50, purified compound

Chain of YEATS4 YEATS domain (O95619 13-158): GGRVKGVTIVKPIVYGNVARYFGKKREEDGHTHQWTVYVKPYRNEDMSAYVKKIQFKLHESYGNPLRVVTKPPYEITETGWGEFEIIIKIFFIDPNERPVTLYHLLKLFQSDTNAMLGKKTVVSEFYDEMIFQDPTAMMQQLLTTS
Chain of YSK4 (also known as MAP3K19) (Q56UN5 whole entry): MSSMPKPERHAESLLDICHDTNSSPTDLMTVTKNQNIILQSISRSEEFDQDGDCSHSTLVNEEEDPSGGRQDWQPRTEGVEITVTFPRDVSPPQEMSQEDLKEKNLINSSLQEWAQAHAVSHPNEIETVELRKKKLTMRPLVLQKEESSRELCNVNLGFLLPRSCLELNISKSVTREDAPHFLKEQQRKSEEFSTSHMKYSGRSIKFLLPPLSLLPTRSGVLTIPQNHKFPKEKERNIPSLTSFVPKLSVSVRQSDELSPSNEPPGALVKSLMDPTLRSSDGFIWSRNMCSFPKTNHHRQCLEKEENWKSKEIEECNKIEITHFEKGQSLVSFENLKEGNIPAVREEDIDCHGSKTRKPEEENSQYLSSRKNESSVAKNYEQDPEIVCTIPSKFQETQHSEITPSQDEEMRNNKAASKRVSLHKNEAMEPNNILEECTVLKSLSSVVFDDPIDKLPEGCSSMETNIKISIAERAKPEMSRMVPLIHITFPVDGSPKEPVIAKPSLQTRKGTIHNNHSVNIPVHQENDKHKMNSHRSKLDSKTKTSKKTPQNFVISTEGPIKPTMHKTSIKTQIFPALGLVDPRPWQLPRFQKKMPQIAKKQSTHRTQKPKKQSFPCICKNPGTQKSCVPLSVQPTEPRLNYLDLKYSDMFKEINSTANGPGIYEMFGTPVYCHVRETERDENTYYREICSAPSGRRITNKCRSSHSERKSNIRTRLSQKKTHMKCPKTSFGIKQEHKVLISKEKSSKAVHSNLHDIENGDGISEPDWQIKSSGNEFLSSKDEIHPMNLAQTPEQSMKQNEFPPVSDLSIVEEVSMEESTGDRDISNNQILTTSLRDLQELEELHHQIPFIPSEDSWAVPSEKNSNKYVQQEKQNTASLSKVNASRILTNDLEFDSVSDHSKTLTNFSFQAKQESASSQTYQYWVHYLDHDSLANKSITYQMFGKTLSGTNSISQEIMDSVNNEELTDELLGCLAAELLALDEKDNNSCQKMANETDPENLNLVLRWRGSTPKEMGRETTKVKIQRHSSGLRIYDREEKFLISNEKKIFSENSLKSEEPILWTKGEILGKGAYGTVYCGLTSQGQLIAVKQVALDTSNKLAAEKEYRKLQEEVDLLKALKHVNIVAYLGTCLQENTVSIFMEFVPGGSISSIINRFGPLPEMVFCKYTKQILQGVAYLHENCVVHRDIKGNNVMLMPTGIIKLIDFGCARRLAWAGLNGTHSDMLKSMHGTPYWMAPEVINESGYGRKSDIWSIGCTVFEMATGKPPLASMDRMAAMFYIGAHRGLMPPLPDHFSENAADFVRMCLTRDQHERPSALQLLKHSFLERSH
Chain of YEATS2 YEATS domain (Q9ULM3 200-345 limits assumed): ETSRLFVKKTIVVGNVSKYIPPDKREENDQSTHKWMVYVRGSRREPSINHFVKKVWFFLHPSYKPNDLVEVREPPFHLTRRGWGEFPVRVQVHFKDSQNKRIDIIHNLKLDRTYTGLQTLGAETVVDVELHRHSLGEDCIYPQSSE
Chain of AF9 (V5) (P42568 whole entry): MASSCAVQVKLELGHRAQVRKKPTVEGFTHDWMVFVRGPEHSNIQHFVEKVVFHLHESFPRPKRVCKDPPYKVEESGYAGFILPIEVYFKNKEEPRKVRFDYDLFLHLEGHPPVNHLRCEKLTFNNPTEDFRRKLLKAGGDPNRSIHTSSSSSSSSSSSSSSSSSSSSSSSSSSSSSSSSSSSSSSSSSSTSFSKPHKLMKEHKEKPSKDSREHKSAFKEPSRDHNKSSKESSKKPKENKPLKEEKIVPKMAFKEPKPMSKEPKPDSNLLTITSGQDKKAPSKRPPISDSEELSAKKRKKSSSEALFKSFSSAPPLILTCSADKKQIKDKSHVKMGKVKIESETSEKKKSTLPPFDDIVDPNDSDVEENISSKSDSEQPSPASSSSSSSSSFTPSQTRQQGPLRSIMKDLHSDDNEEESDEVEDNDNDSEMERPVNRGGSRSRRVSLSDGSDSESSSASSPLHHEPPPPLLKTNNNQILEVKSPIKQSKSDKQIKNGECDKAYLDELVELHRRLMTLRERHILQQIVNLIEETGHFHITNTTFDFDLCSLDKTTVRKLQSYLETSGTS
Chain of AF9 YEATS domain (P42568 1-138 limits assumed): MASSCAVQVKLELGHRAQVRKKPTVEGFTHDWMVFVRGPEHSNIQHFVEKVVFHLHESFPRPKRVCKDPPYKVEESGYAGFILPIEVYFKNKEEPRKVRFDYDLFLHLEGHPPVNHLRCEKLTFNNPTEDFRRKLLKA
Chain of AF9(YEATS)-HiBiT (P42568 1-138 limits assumed): as above

## O=C(NC1CCC1)c1ccc2nc(-c3cccc(NS(=O)(=O)NCCN4CCCCC4)c3)cn2c1 [SR-0813, N-Cyclobutyl-2-(3-((N-(2-(piperidin-1-yl)ethyl)sulfamoyl)amino)phenyl)imidazo[1,2-a]pyridine-6-carboxamide]
MV4;11 cells [1]
  expression of ENL target genes (3′ mRNA-seq): strikingly selective suppression of ENL target genes
  global gene expression (3′ mRNA-seq): did not elicit global changes in gene expression
MV4;11 cells [2]
  effect on viability: minimal effects
YEATS4 YEATS domain
  binding to the YEATS4 YEATS domain by SPR: virtually no binding
BRD4 BD1
  activity against BRD4 BD1 by HTRF: inactive
YEATS2 YEATS domain
  YEATS2 recognition of acetyllysine on histone peptide arrays: minimal effects
32 bromodomains
  bromodomain off targets (BROMOscan, bromoMAX): not a single bromodomain off target was identified
MV4;11 cells [3]
  cell cycle distribution: decrease in the number of cells at the G2 stage of the cell cycle
MOLM-13
  effect on cell growth: inhibited the growth
AF9(YEATS)-HiBiT
  EC50: 76 nM
786-O
  effect on cell growth: neither the T-cell ALL cell line, MOLT-4, nor the renal cell carcinoma cell line, 786-O, were affected
OCI/AML-2
  effect on cell growth: inhibited the growth
MV4;11 cells [4]; MV4;11
  abundance of the ITGAM transcript (CD11b): increased abundance
MV4;11 cells [4]; MV4;11, from 3 h to at least 3 days, 1 and 10 μM
  transcript abundance of HOXA9, MEIS1 and MYC: downregulated
MV4;11 cells [4]; MV4;11, most prominent at 10 μM
  transcript abundance of HMGCR and HMGCS1 (SREBP targets, off-target effect): upregulation
HL-60
  effect on cell growth: unaffected; also recorded: muted antiproliferative activity
AF9 YEATS domain
  IC50: 311 nM
[5]
  lower affinity for YSK4 than for ENL YEATS: over 100 fold
468 kinases
  number of kinases identified as potential off targets (KINOMEscan, scanMAX): 4
JURKAT
  effect on cell growth: unaffected; also recorded: muted antiproliferative activity
ENL [6]; MV4;11
  ENL ChIP-seq signal genome-wide: bulk displacement of ENL from chromatin
ENL [6]; MV4;11, 4 h
  ENL ChIP-qPCR enrichment at ENL binding sites (HOXA10 gene body, MYB promoter): dose-dependent eviction of ENL
HB11;19
  effect on cell growth: inhibited the growth
MV4;11
  effect on cell growth: inhibited the growth
MOLT-4
  effect on cell growth: neither the T-cell ALL cell line, MOLT-4, nor the renal cell carcinoma cell line, 786-O, were affected
ENL YEATS domain [7]
  ENL recognition of acetyllysine on histone peptide arrays: completely inhibited

## O=C(COc1cccc2c1C(=O)N(C1CCC(=O)NC1=O)C2=O)NCCOCCOCCNS(=O)(=O)Nc1cccc(-c2cn3cc(C(=O)NC4CCC4)ccc3n2)c1 (stereo not drawn) [SR-1114, N-Cyclobutyl-2-(3-((N-(2-(2-(2-(2-((2-(2,6-dioxopiperidin-3-yl)-1,3-dioxoisoindolin-4-yl)oxy)acetamido)ethoxy)ethoxy)ethyl)sulfamoyl)amino)phenyl)imidazo[1,2-a]pyridine-6-carboxamide]
MV4;11 cells [8]
  off-target degradation of IKZF1: weak off-target degradation
MV4;11 cells [8]; 4 and 16 h
  change in ENL abundance across the proteome: strongest change in abundance across the proteome
MV4;11 cells [8]; 16 h
  abundance of ENL target genes (HOXA10, MYC, MYB, FLT3, ZEB2, SATB1): preferential suppression of multiple ENL target genes
  abundance of myeloid differentiation marker CD11b: increased the abundance
AF9 (V5)
  degradation of exogenously expressed AF9-V5: degraded
ENL [9]; 10 μM
  time ENL degradation is sustained by a single dose: 24 h
ENL [9]; 10 μM, MV4;11 cells
  time to maximal ENL degradation: ≤ 4 h
ENL [9]; MOLM-13 cells
  DC50: 311 nM
ENL [9]; OCI/AML-2 cells
  DC50: 1650 nM

## CC(C)N(C)C(=O)c1ccc2nc(-c3ccccc3)cn2c1 [compound 2, N-Isopropyl-N-methyl-2-phenylimidazo[1,2-a]pyridine-6-carboxamide]
ENL YEATS domain [10]
  activity against ENL YEATS: complete ablation of activity
ENL YEATS domain [10]; [11]
  IC50: > 50000 nM
ENL(YEATS)-HiBiT
  EC50: > 20000 nM

## CC(C)NC(=O)c1ccc2nc(-c3cccc(NS(=O)(=O)NCCc4c[nH]cn4)c3)cn2c1 [compound 7]
ENL YEATS domain [10]; ENL YEATS HTRF IC50, purified compound
  IC50: 230 nM
ENL YEATS domain [10]; [11]
  IC50: 232 nM
ENL YEATS domain [10]; HTRF IC50 ratio
  improvement in potency compared to the initial screening hit: 30 fold
ENL(YEATS)-HiBiT
  EC50: 1500 nM
